Here are results for eight compounds from US20160355530A1, “HEPATITIS C INHIBITORS AND USES THEREOF” (AbbVie Inc., priority 2010, published 2016).

Each structure is given as a SMILES string. pEC50, pIC50: −log10 of the molar value. Where two headings read alike, the source gives them in different places.

In test [1] the target is T1, HCV NS5B polymerase 1a-H77 (Hepatitis C virus genotype 1a, UniProt P27958).
T1 construct: six-histidine tag; made in house; host or cells: E. coli
As to the kind of experiment: biochemical. Details: species or system HCV genotype 1a. Particulars: enzyme, strain 1a H77; read-out: HCV Polymerase Strain 1a H77 IC50. In short, it runs like this:
(§1)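 Incorporation of [3H]UTP (0.284 μM), alongside 20 μM each CTP and ATP, into RNA copied from a 5 nM 2.1 kb genotype 1b negative-strand template was measured after 3 h at 30° C using purified His-tagged NS5B truncated at residue 570. Product was spermine-precipitated, filtered and scintillation-counted; nonlinear regression gave IC50.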

For test [2], the target named is T2, HCV NS5B polymerase 1a-H77-C316Y (Hepatitis C virus genotype 1a, UniProt P27958, C2736Y).
T2 construct: six-histidine tag; made in house; host or cells: E. coli
As to the kind of experiment: biochemical. More on the design: species or system HCV genotype 1a. The essentials:
as §1

Test [3] has as its system HCV NS5B polymerase 1a-H77-C316Y. As to the kind of experiment: biochemical. More on the design: species or system HCV genotype 1a. Particulars: ratio of enzyme IC50s, 1a H77-C316Y / 1a H77. The essentials: as §1
The target of test [4] is T3, HCV NS5B polymerase 1b BK strain (Hepatitis C virus genotype 1b, UniProt P26663).
T3 construct: six-histidine tag; made in house; host or cells: E. coli
As to the kind of experiment: HCV NS5B polymerase enzymatic inhibition assay, strain 1b BK. Type of test: biochemical. Particulars: enzyme, strain 1b BK; read-out: HCV Polymerase Strain 1b BK IC50. The essentials:
as §1

Test [5] relates to HCV 1a-H77 subgenomic replicon. As to the kind of experiment: microbe, parasite or virus in culture. The test is classed as cell-based, HCV genotype 1a. Particulars: Hepatitis C virus, stable replicon. For orientation: In antiviral work, replicon cells carry a viral genome segment that copies itself.
Test [6] concerns HCV 1b-BB7 subgenomic replicon. As to the kind of experiment: microbe, parasite or virus in culture. Particulars: Hepatitis C virus, stable replicon. The test is classed as cell-based, HCV genotype 1b.
For test [7], the system named is chimeric replicon with 2a-J6CF-derived NS5B. The test can be described thus: microbe, parasite or virus in culture. Type of test: cell-based, HCV genotype 2a. Particulars: Hepatitis C virus, read-out: 2a chimera 5% FBS EC50.
In test [8] the test system is chimeric replicon with genotype 2b NS5B. The test can be described thus: microbe, parasite or virus in culture. The test is classed as cell-based, HCV genotype 2b. Particulars: Hepatitis C virus, read-out: 2b chimera 5% FBS EC50.
Test [9] relates to chimeric replicon with genotype 3a NS5B. As to the kind of experiment: microbe, parasite or virus in culture. The test is classed as cell-based, HCV genotype 3a. Particulars: Hepatitis C virus, read-out: 3a chimera 5% FBS EC50.
Test [10] deals with chimeric replicon with genotype 4a NS5B. The test can be described thus: microbe, parasite or virus in culture. Type of test: cell-based, HCV genotype 4a. Particulars: Hepatitis C virus, read-out: 4a chimera 5% FBS EC50.
Where [11] appears, read: 5% FBS, absence of human plasma, read-out: Stable Replicon 1a H77 5% FBS EC50.
The mark [12] stands for this setting: strain 1a H77, 5% FBS + 40% human plasma, read-out: 1a H77 5% FBS + 40% Human Plasma EC50.
The mark [13] stands for this setting: strain 1a H77, 5% FBS, no human plasma, read-out: 1a H77 5% FBS EC50.
Setting [14] is: strain 1a H77, 5% FBS, read-out: 1a H77 5% FBS EC50.
[15] abbreviates: strain 1b BB7, 5% FBS + 40% human plasma, read-out: 1b BB7 5% FBS + 40% Human Plasma EC50.
Where [16] appears, read: strain 1b BB7, 5% FBS, no human plasma, read-out: 1b BB7 5% FBS EC50.
Where [17] appears, read: strain 1b BB7, 5% FBS, read-out: 1b BB7 5% FBS EC50.

T1 sequence (P27958 2421-2990): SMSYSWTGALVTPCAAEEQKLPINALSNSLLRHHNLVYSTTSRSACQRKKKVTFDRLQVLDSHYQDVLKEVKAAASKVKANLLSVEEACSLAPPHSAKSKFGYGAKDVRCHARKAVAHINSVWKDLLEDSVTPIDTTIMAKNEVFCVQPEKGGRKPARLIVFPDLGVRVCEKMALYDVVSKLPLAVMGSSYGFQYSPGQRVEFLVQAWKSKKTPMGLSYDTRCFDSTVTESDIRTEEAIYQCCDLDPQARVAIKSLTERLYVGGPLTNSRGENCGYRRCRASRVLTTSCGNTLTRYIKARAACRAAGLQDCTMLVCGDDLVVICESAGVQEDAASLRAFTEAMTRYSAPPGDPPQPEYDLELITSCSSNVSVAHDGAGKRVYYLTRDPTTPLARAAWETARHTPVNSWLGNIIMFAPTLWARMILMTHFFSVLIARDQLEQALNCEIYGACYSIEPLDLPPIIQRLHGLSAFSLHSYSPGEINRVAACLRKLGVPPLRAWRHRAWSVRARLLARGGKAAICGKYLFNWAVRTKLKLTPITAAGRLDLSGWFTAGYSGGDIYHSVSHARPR
T3 sequence (P26663 2420-2989): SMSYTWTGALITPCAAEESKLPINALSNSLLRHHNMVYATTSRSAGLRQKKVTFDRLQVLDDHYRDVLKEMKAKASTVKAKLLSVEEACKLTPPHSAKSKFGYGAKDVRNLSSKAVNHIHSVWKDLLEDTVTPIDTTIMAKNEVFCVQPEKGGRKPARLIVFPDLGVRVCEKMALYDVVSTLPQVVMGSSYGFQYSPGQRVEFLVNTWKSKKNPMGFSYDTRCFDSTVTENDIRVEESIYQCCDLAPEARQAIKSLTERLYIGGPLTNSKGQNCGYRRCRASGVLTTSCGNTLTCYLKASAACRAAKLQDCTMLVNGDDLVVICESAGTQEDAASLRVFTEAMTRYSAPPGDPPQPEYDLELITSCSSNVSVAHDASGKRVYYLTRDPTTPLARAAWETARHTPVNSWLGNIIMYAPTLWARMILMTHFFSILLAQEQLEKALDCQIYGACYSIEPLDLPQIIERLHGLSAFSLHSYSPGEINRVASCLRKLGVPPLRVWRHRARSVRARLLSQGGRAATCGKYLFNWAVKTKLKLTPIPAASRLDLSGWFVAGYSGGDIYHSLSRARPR
T2 sequence (P27958 2421-2990 C2736Y): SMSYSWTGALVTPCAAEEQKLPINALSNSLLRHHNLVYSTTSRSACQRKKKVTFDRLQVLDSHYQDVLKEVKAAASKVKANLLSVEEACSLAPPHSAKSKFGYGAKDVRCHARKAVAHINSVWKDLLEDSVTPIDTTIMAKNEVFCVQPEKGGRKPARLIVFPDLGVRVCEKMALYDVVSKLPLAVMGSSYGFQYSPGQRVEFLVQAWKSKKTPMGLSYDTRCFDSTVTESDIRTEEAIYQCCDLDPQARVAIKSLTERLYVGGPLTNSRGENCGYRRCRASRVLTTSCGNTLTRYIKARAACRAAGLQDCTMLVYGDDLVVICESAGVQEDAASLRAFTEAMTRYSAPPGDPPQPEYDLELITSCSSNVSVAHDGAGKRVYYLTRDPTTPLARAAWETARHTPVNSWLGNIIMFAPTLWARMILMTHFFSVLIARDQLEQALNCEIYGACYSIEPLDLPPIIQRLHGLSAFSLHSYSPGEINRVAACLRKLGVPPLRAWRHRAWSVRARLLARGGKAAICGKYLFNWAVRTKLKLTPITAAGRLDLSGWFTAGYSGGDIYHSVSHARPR

With `CS(=O)(=O)N(CC1CC1)c1cc2oc(-c3ccc(F)cc3)c(-c3ncc[nH]3)c2cc1C1CC1` [Example 53, N-[5-cyclopropyl-2-(4-fluorophenyl)-3-(1H-imidazol-2-yl)-1-benzofuran-6-yl]-N-(cyclopropylmethyl)methanesulfonamide], the results for the pIC50 in test [1], in test [2] and in [4] were 8.31, 6.65 and 6.61, respectively. The “C316Y/1a Fold Resistance” value in test [3] stood at 46 fold. For the same compound, the pEC50 in test [5] (setting [11]) was 6.95; in test [5] (setting [12]), 6.00; in [5] (setting [13]), 6.95; in [5] (setting [14]), 6.95; in [6] (setting [15]), 6.65; in [6] (setting [16]) it was 7.28. In addition, the negative-log EC50 (pEC50) in test [6] (setting [17]) was 7.28; in test [7], 6.81; in test [8], 6.57; in test [9], 7.64; in test [10], 6.42.
In the case of `CS(=O)(=O)N(CCCc1noc(=S)[nH]1)c1cc2oc(-c3ccc(F)cc3)c(-c3ncc[nH]3)c2cc1C1CC1` [Example 177, N-[5-cyclopropyl-2-(4-fluorophenyl)-3-(1H-imidazol-2-yl)-1-benzofuran-6-yl]-N-[3-(5-thioxo-4,5-dihydro-1,2,4-oxadiazol-3-yl)propyl]methanesulfonamide], the negative-log IC50 (pIC50) was 8.40 in test [1], 7.42 in test [2] and 7.44 in test [4]. The “C316Y/1a Fold Resistance” value in [3] came to 10 fold. Moreover, the pEC50 in test [5] (setting [11]) is 7.49; in test [5] (setting [12]) it was 6.28; in test [5] (setting [13]) it was 7.49; in test [5] (setting [14]), 7.49; in [6] (setting [15]), 6.34; in test [6] (setting [16]), 7.64. The pEC50 was 7.64 in [6] (setting [17]); 6.37 in [7]; 6.22 in test [8]; 7.52 in test [9]; 6.40 in test [10].
On to `C[S+]([O-])CCN(c1cc2oc(-c3ccc(F)cc3)c(C3=NOCCN3)c2cc1C1CC1)S(C)(=O)=O` (centres unmarked) [Example 138, N-[5-cyclopropyl-3-(5,6-dihydro-4H-1,2,4-oxadiazin-3-yl)-2-(4-fluorophenyl)-1-benzofuran-6-yl]-N-[2-(methylsulfinyl)ethyl]methanesulfonamide], for which the pIC50 in test [1] is 8.01; in test [2] it was 6.63; in test [4], 7.31. In test [3], the “C316Y/1a Fold Resistance” value is 24 fold. Besides, the pEC50 in [5] (setting [11]) was 7.33; in test [5] (setting [12]) it was 6.74; in [5] (setting [13]), 7.33; in [5] (setting [14]), 7.33; in [6] (setting [15]), 6.57; in test [6] (setting [16]), 7.44. Also, the pEC50 in test [6] (setting [17]) was 7.44; in [7], 6.00; in test [8], 6.00; in test [9], 6.99; in test [10] it was 6.28.
For the compound `CC[S+]([O-])CCN(c1cc2oc(-c3ccc(F)cc3)c(C3=NOCCN3)c2cc1C1CC1)S(C)(=O)=O` (centres unmarked) [Example 141, N-[5-cyclopropyl-3-(5,6-dihydro-4H-1,2,4-oxadiazin-3-yl)-2-(4-fluorophenyl)-1-benzofuran-6-yl]-N-[2-(ethylsulfinyl)ethyl]methanesulfonamide], the pIC50 in [1] is 7.82; in test [2], 6.68; in test [4] it was 6.78. Also, the “C316Y/1a Fold Resistance” value in test [3] is 14 fold. For the same compound, the pEC50 in test [5] (setting [11]) is 7.41; in [5] (setting [12]), 6.56; in [5] (setting [13]) it was 7.41; in test [5] (setting [14]) it was 7.41; in [6] (setting [15]) it was 6.53; in test [6] (setting [16]), 7.51. The pEC50 was 7.51 in test [6] (setting [17]); 6.21 in test [7]; 6.00 in [8]; 7.28 in [9]; 6.21 in test [10].
For `CS(=O)(=O)N(Cc1cnc(-c2ccc3[nH]ccc3c2)s1)c1ccc2c(-c3ncc[nH]3)c(-c3ccccc3)oc2c1` [Example 23, N-[3-(1H-imidazol-2-yl)-2-phenyl-1-benzofuran-6-yl]-N-{[2-(1H-indol-5-yl)-1,3-thiazol-5-yl]methyl}methanesulfonamide], the pIC50 in test [1] is 8.41; in test [2], 7.57; in [4], 8.00. Moreover, the “C316Y/1a Fold Resistance” value in test [3] came out at 7 fold. The pEC50 was 6.64 in test [5] (setting [11]); 5.00 in [5] (setting [12]); 6.64 in test [5] (setting [13]); 6.64 in test [5] (setting [14]); 5.03 in [6] (setting [15]); 7.58 in [6] (setting [16]). Further, the negative-log EC50 (pEC50) in test [6] (setting [17]) was 7.58; in test [7], 7.38; in test [8], 6.55; in test [9], 7.76; in [10] it was 6.50.
As for `CN(C)C(=O)CCCN(c1cc2oc(-c3ccc(F)cc3)c(-c3ncc[nH]3)c2cc1C1CC1)S(C)(=O)=O` [Example 102, 4-{[5-cyclopropyl-2-(4-fluorophenyl)-3-(1H-imidazol-2-yl)-1-benzofuran-6-yl](methylsulfonyl)amino}-N,N-dimethylbutanamide], the pIC50 in [1] was 8.11; in test [2], 6.77; in test [4], 7.33. Further, the “C316Y/1a Fold Resistance” value in test [3] was found to be 22 fold. The pEC50 is 7.62 in test [5] (setting [11]); 6.62 in test [5] (setting [12]); 7.62 in test [5] (setting [13]); 7.62 in test [5] (setting [14]); 7.18 in test [6] (setting [15]); 8.00 in test [6] (setting [16]). Also, the pEC50 is 8.00 in test [6] (setting [17]); 6.97 in [7]; 6.87 in test [8]; 8.01 in [9]; 6.84 in test [10].
For the compound `CCN(CC)CCN(c1cc2oc(-c3ccc(F)cc3)c(C3=NOCCN3)c2cc1C1CC1)S(C)(=O)=O` [Example 129, N-[5-cyclopropyl-3-(5,6-dihydro-4H-1,2,4-oxadiazin-3-yl)-2-(4-fluorophenyl)-1-benzofuran-6-yl]-N-[2-(diethylamino)ethyl]methanesulfonamide], the results for the pIC50 in test [1], in test [2] and in test [4] were 7.62, 6.20 and 6.33, respectively. Also, in test [3], the “C316Y/1a Fold Resistance” value is given as 26 fold. The pEC50 in test [5] (setting [11]) is 7.09; in test [5] (setting [12]), 6.52; in test [5] (setting [13]), 7.09; in test [5] (setting [14]), 7.09; in [6] (setting [15]) it was 6.79; in test [6] (setting [16]) it was 7.42. The pEC50 in [6] (setting [17]) was 7.42; in test [7], 6.20; in [8], 6.20; in [9], 6.83; in [10], less than 6.00.
With `CS(=O)(=O)N(CCCN1CCCCC1)c1cc2oc(-c3ccc(F)cc3)c(C3=NOCCN3)c2cc1C1CC1` [Example 130, N-[5-cyclopropyl-3-(5,6-dihydro-4H-1,2,4-oxadiazin-3-yl)-2-(4-fluorophenyl)-1-benzofuran-6-yl]-N-[3-(piperidin-1-yl)propyl]methanesulfonamide], the pIC50 in test [1] was 7.69; in test [2], 6.39; in test [4] it was 6.64. Moreover, the “C316Y/1a Fold Resistance” value in test [3] was 20 fold. Besides, the pEC50 was 7.35 in [5] (setting [11]); 6.53 in test [5] (setting [12]); 7.35 in test [5] (setting [13]); 7.35 in test [5] (setting [14]); 6.96 in test [6] (setting [15]); 7.59 in test [6] (setting [16]). Moreover, the pEC50 in [6] (setting [17]) was 7.59; in [7], 7.13; in [9], 7.37; in test [10], 6.38.

As usually defined, the pIC50 is −log10 of the IC50, conventionally taken in molar units. As usually defined, the pEC50 is the EC50 on a negative log10 scale, so that one unit is a factor of ten.
